Read-outs that look alike come from different tables or passages of the source.

Test [1] concerns the target T1, human orexin-1 receptor (Homo sapiens, UniProt O43613).
T1 construct: expressed in transfected cells; host or cells: CHO cells (G418 selection)
T1 sequence (O43613 1-425): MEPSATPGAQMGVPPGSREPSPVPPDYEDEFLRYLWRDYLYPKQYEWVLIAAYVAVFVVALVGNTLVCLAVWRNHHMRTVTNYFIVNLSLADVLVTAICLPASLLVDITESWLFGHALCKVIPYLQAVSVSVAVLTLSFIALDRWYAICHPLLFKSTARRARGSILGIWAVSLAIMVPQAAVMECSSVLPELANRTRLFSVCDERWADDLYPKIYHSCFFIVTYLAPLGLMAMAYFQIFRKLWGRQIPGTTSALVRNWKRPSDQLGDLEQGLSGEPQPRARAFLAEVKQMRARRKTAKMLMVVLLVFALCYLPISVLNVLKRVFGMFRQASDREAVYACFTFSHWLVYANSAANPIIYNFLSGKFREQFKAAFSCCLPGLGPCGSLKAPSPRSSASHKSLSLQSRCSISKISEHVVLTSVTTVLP
Briefly: FLIPR intracellular calcium assay, orexin receptor antagonistic activity, CHO cells expressing human orexin-1 receptor. It counts as cell-based. The note with it: read-out: OX1 IC50. On the procedure:
(§1) The orexin receptor antagonistic activity of the compounds of formula (I) is determined in accordance with one of the following experimental methods.
(§2) Chinese hamster ovary (CHO) cells expressing the human orexin-1 receptor and the human orexin-2 receptor, respectively, are grown in culture medium (Ham F-12 with L-Glutamine) containing 300 μg/ml G418, 100 U/ml penicillin, 100 μg/ml streptomycin and 10% heat inactivated fetal calf serum (FCS). The cells are seeded at 20'000 cells/well into 384-well black clear bottom sterile plates (Greiner). The seeded plates are incubated overnight at 37° C. in 5% CO2.
(§3) Human orexin-A as an agonist is prepared as 1 mM stock solution in MeOH: water (1:1), diluted in HBSS containing 0.1% bovine serum albumin (BSA), NaHCO3: 0.375 g/l and 20 mM HEPES for use in the assay at a final concentration of 3 nM.
(§4) Antagonists are prepared as 10 mM stock solution in DMSO, then diluted in 384-well plates, first in DMSO, then in HBSS containing 0.1% bovine serum albumin (BSA), NaHCO3: 0.375 g/l and 20 mM HEPES.
(§5) On the day of the assay, 50 μl of staining buffer (HBSS containing 1% FCS, 20 mM HEPES, NaHCO3: 0.375 g/l, 5 mM probenecid (Sigma) and 3 μM of the fluorescent calcium indicator fluo-4 AM (1 mM stock solution in DMSO, containing 10% pluronic) is added to each well.
(§6) The 384-well cell-plates are incubated for 50 min at 37° C. in 5% CO2 followed by equilibration at RT for 30-120 min before measurement.
(§7) Within the Fluorescent Imaging Plate Reader (FLIPR2 or FLIPR Tetra, Molecular Devices), antagonists are added to the plate in a volume of 10 μl/well, incubated for 10 min and finally 10 μl/well of agonist is added. Fluorescence is measured for each well at 1 second intervals, and the height of each fluorescence peak is compared to the height of the fluorescence peak induced by 3 nM orexin-A with vehicle in place of antagonist. For each antagonist, the IC50 value (the concentration of compound needed to inhibit 50% of the agonistic response) is determined. Optimized conditions may be achieved by adjustment of pipetting speed and cell splitting regime. The calculated IC50 values of the compounds may fluctuate depending on the daily cellular assay performance. Fluctuations of this kind are known to those skilled in the art.
For orientation: Calcium flux is commonly read through the fluorescence of an indicator in the cells.

Test [2] concerns the target T2, human orexin-2 receptor (Homo sapiens, UniProt O43614).
T2 construct: expressed in transfected cells; host or cells: CHO cells (G418 selection)
T2 sequence (O43614 1-444): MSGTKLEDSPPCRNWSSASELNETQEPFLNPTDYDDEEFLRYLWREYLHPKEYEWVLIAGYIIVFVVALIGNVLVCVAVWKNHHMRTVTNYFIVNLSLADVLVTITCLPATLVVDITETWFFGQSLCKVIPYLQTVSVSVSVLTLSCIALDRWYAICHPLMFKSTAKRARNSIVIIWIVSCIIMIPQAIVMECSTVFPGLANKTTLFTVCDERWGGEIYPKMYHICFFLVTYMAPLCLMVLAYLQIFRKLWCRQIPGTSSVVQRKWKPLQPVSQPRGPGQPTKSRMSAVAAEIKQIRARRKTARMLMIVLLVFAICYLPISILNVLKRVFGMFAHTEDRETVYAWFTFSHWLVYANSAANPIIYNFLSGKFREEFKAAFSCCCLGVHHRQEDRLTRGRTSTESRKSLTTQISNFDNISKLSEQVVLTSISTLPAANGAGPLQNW
Briefly: FLIPR intracellular calcium assay, orexin receptor antagonistic activity, CHO cells expressing human orexin-2 receptor. It counts as cell-based. The note with it: read-out: OX2 IC50. As for the experimental part:
as §1, §2, §3, §4, §5, §6, §7

[3] abbreviates: measured with FLIPR 2, 3 nM orexin-A as agonist.
Where [4] appears, read: marked with *: measured with FLIPR Tetra, 3 nM orexin-A as agonist.

What is called IC50 is the point on the concentration scale where inhibition reaches its midpoint. As for `Cc1nc2sccn2c1C(=O)NC[C@@H]1CCCCN1C(=O)c1nc(-c2ccc(F)cc2)sc1-c1ccc(F)cc1` [Example 3], the IC50 in test [1] (setting [3]) worked out at 1 nM; in test [2] (setting [3]) it was 24 nM.

Consider `COc1cccc(-c2nc(C(=O)N3CCCC[C@H]3CNC(=O)c3c(C)nc4sccn34)c(-c3ccc(F)cc3)s2)c1` [Example 5, (S)-6-methyl-imidazo[2,1-b]thiazole-5-carboxylic acid{1-[5-(4-fluoro-phenyl)-2-(3-methoxy-phenyl)-thiazole-4-carbonyl]-piperidin-2-ylmethyl}-amide], for which the results for the IC50 in test [1] (setting [3]) and in test [2] (setting [3]) were 2 nM and 7 nM, respectively.

As to `O=C(NC[C@@H]1CCCCN1C(=O)c1nc(-c2ccccc2)sc1-c1ccccc1F)c1cccc2c1CCO2` [Example 17, (S)-2,3-dihydro-benzofuran-4-carboxylic acid{1-[5-(2-fluoro-phenyl)-2-phenyl-thiazole-4-carbonyl]-piperidin-2-ylmethyl}-amide], the IC50 stood at 20 nM in test [1] (setting [4]) and 68 nM in test [2] (setting [4]).

For the compound `Cn1cc(C(=O)NC[C@@H]2CCCCN2C(=O)c2nc(-c3ccccc3)sc2-c2ccccc2F)c2ccccc21` [Example 24, (S)-1-methyl-1H-indole-3-carboxylic acid{1-[5-(2-fluoro-phenyl)-2-phenyl-thiazole-4-carbonyl]-piperidin-2-ylmethyl}-amide], the IC50 in test [1] (setting [4]) was 10 nM; in test [2] (setting [4]), 60 nM.

With `Cc1ccc(-c2sc(-c3ccccc3)nc2C(=O)N2CCCC[C@H]2CNC(=O)c2c(C)nc3sccn23)cc1` [Example 38, (S)-6-methyl-imidazo[2,1-b]thiazole-5-carboxylic acid[1-(2-phenyl-5-p-tolyl-thiazole-4-carbonyl)-piperidin-2-ylmethyl]-amide], the IC50 in test [1] (setting [3]) worked out at 2 nM; in test [2] (setting [3]) it was 8 nM.

Consider `Cn1nc(C(=O)NC[C@@H]2CCCN2C(=O)c2nc(-c3cccnc3)sc2-c2cccc(Cl)c2)c2ccccc21` [Example 44, (S)-1-methyl-1H-indazole-3-carboxylic acid{1-[5-(3-chloro-phenyl)-2-pyridin-3-yl-thiazole-4-carbonyl]-pyrrolidin-2-ylmethyl}-amide], for which the IC50 in test [1] (setting [4]) came to 9 nM; in test [2] (setting [4]), 18 nM.

Turning to `Cc1cccc(-c2nc(C(=O)N3CCC[C@H]3CNC(=O)c3c(C)nc4sccn34)c(-c3ccc(F)cc3)s2)c1` [Example 45, (S)-6-methyl-imidazo[2,1-b]thiazole-5-carboxylic acid{1-[5-(4-fluoro-phenyl)-2-m-tolyl-thiazole-4-carbonyl]-pyrrolidin-2-ylmethyl}-amide], the figures for the IC50 in test [1] (setting [3]) and in test [2] (setting [3]) were 1 nM and 12 nM, respectively.

The record behind these values is patent publication US8288411B2, “Pyrrolidines and piperidines as orexin receptor antagonists” (Actelion Pharmaceuticals Ltd., priority 2007, dated 2012).
